Measurements from BindingDB's records for doi:10.1021/jm030241s (National Cancer Institute-Frederick, 2003).

Molecular target: Thymidine kinase (Human herpesvirus 1)
Experiment: Binding affinity constant against HSV-1 thymidine kinase

Ki: 62.9 µM
Structure (SMILES): O=c1[nH]c(=O)n([C@H]2C[C@H](O)[C@]3(CO)C[C@H]23)cc1C=CBr [5-((E)-2-Bromo-vinyl)-1-((1R,3S,4S,6S)-4-hydroxy-5-hydroxymethyl-bicyclo[3.1.0]hex-2-yl)-1H-pyrimidine-2,4-dione]
